Converted amounts (≈) assume the structure as drawn. “Also recorded” adds a separate entry of the source. Counter-ions that a name gives are not always drawn.
Legend:
[1] = Absorption of bromhexine from the intestinal tract (preliminary tests in vivo); settings: for absorption from the intestinal tract: micronized, introduced by preparation resistant to gastric juices
Text: In view of the obvious advantages of producing a delayed-release form of bromhexine, there has been no shortage of attempts to produce such a preparation. […] In cases such as this, success is often achieved if the active substance is mixed with an emulsifier which then releases the active substance in solubilized form in the intestinal juices.

[2] = cited from earlier work
[3] = Solubility of bromhexine base in phosphate buffer / aqueous medium; format: physicochemical; settings: for solubility: aqueous buffer
Text: If, for example, bromhexine hydrochloride is made into the form of a matrix-type delayed-release tablet (Example 11), bromhexine can only be released, in dissolved form, from this preparation as long as the tablet is in the acidic medium of the stomach. […] The intestinal juices momentarily buffer the acid salts to form a substantially insoluble bromhexine base.

Solubility in aqueous medium ([3]; acidic range) | solubility ([3]; pH 4.5, phosphate buffer) [µg/mL] | solubility ([3]; pH 5.0, phosphate buffer) [µg/mL] | solubility ([3]; pH 6.0, phosphate buffer) [µg/mL] | solubility ([3]; pH 6.5, phosphate buffer) [µg/mL] | solubility ([3]; pH 7.0, phosphate buffer) [µg/mL] | Compound | absorption from the intestinal tract [1] | frequency of coughing, total number of coughing spasms and intensity of the cough ([2]; in vivo) | therapeutic effect in diseases of the respiratory tract ([2]; pathological change in secretion, single or double blind testing) | breathing ([2]; patients' finding) | Solubility in water ([3]; above a pH of 4 / from pH 4.0) | absorption rate along the intestine ([1]; dissolved bromhexine in various intestinal sections, duodenum to colon)
 |  |  |  |  |  | CN(Cc1cc(Br)cc(Br)c1N)C1CCCCC1 [micronized bromhexine hydrochloride] | did not result in any appreciable absorption |  |  |  |  | 
soluble only in the acidic range | 650 (≈ 1730 µM) | 150 (≈ 399 µM) | 30 (≈ 79.8 µM) | 10 (≈ 26.6 µM) | 3 (≈ 7.98 µM) | CN(Cc1cc(Br)cc(Br)c1N)C1CCCCC1 [bromhexine, N-cyclohexyl-N-methyl-(2-amino-3,5-dibromobenzyl)-amine] |  | favorably affected | often been confirmed | breathing is eased | virtually insoluble in water; also recorded: virtually insoluble from pH 4.0 | decreases sharply from the duodenum to the colon; also recorded: absorbed particularly quickly in the uppermost section of the intestines; also recorded: decreases significantly in the lower intestinal regions
 |  |  |  |  |  | CN(Cc1cc(Br)cc(Br)c1N)C1CCCCC1 [micronized bromhexine] | not absorbed |  |  |  |  | 
